Results taken from patent publication US11096952B2, “Chemicals and methods to prevent and treat TGF-beta mediated activation of fibroblasts to reduce and treat cancer and fibrosis” (Board of Supervisors of Louisiana State University and …, priority 2016, dated 2021).

Experiments:
[1] = tested on: activated fibroblast phenotype (fibronectin, YAP, TAZ, smooth muscle actin); assay: Western blot of activated fibroblast markers (FN, YAP, TAZ, SMA) in MRC-5 lung fibroblasts induced by growth factors; assay type: cell-based, human
Protocol: FIG. 10C: MRC-5 lung fibroblast cells were serum-starved 24 hours then treated with 10 ng/mL TGF-β in serum-free media for 24 hours with or without verteporfin at the indicated concentration. FN: fibronectin, YAP: yes-activated protein, TAZ: transcriptional coactivator with PDZ-binding motif, and SMA(ACTA2): smooth muscle actin. Representative western blot is shown (n=3).
FIG. […] T.F.8: combination TGF, FGF, IL8. […] FN: fibronectin, YAP: yes-activated protein, TAZ: transcriptional coactivator with PDZ-binding motif, and SMA(ACTA2): smooth muscle actin. Representative western blot is shown (n=2).

WPMY-1 cells = assay: Viability / metabolic activity assay on WPMY-1 cells; settings: WPMY-1, compound at its IC50, up to 48 hours, 1% FBS DMEM, vs DMSO control
Protocol: Metabolically viable cells (indicated by bar; left y-axis) are indicated by fluorescent intensity (560/590 nm).
Cardiac glycosides have been shown previously to inhibit cell growth in a variety of cell types, in order to determine whether cardiac glycosides inhibited TGE-β-induced fibronectin expression by affecting metabolic activity, viability assays were performed on WPMY-1 cells over 48 hours in 1% FBS DMEM.

[2] = tested on: TGF-β-induced fibronectin expression; assay: Western blot of TGF-β-induced fibronectin expression in WPMY-1 fibroblasts; assay type: cell-based, human; settings: for TGF-β-induced fibronectin expression, intracellular Ca2+ modulators (western blot): WPMY-1, 2.5-10 μM, 5 ng/ml TGF-β, 24 hours
Protocol: (§1) Inhibitors of CAF Differentiation. A. WPMY-1 cells were plated into each well of 4-chamber slice (for IF), or (C) in a 24 well plate (for western blot analysis). After cell attachment, vehicle or 5 ng/ml TGF-β was added into each well and incubated for 24 h in a 37° C. in a humidified incubator containing 5% CO2. For fluorescence detection (A), cells were fixed and stained with antibody detecting fibronectin and/or stained with DAPI to detect the nuclei. Protein was extracted with boiling Lamaelli buffer for WB (C) and blots were probed with anti-fibronectin or anti-tubulin antibodies. Fibronectin fluorescence (D and E) was measured in the presence or absence of TGF-β in 8 well replicates as follows. Cells were conditioned in serum-free DMEM for 48 hr prior to the addition of TGF-β. Images were acquired using a Cellomics platform with a mask shown in the schematic of (B). The mean of the total fluorescence intensity in each well was calculated from 300 cells per image field and up to 15 fields from each well for fibronectin. The fold change in fibronectin expression per acquired image (nuclei) is shown (Mean+/−SD).
Panel A1 is the control, Panel A2 is the TGF-β treated wells and Panel A3 is TGF-β plus PsA at 5 micromolar. Images were captured using the Cellomics imaging system.
Representative blots are shown with two exposures of fibronectin to account for strong signal intensity. n=3.
FIGS. 9A-9B: Increases in intracellular Ca^2+ prevent TGF-β-induced fibronectin expression. (A) WPMY-1 fibroblasts were treated with 2.5 μM thapsigargin±5 ng/ml TGF-β for 24 hours. (B) WPMY-1 fibroblasts were treated with 2.5-10 μM 3′,4′-dichlorobenzamil hydrochloride (DCB)±5 ng/ml TGF-β for 24 hours. Cell lysates were analyzed by western blot for fibronectin expression.
Because of the observed low nanomolar effective concentration of the cardiac glycosides, the inventors hypothesized that the cardiac glycosides may be acting by binding to their high affinity target, the Na^+/K^+ ATPase, and that action through the ATPase is the mechanism by which the cardiac glycosides are able to block TGF-β-induced fibronectin expression. It is well documented that inhibition of the Na^+/K^+ ATPase by digoxin leads to increases in intracellular Ca^2+ by preventing Ca^2+ efflux through the Na^+/Ca^2+ exchanger. In order to determine if increased intracellular Ca^2+ is sufficient to prevent TGF-β-induced fibronectin expression, the inventors utilized two compounds that increase intracellular Ca^2+ concentrations. 3′,4′-dichlorobenzamil hydrochloride (DCB) inhibits the Na^+/Ca^2+ exchanger, Na^+ transport, and sarcoplasmic reticulum Ca^2+ release channels. Thapsigargin inhibits the endoplasmic reticulum Ca^+ ATPase, preventing storage of Ca^2+ in the endoplasmic reticulurn, causing an accumulation in the cytoplasm. Cells were treated with 2.5-10 μM of DCB or thapsigargin±TGF-β for 24 hours.

[3] = tested on: TGF-β-induced fibronectin; assay: High content imaging (Cellomics) screen for inhibitors of fibronectin induction by TGF-beta in WPMY-1 cells; assay type: cell-based, human
Protocol: as §1, with “The fold change in fibronectin expression per acquired image (nuclei) is shown (Mean+/−SD).” left out
FIGS. 4A-4H: Dose response for identified hits. As shown in the four panels of FIG. 4A, fibronectin fluorescence was measured from images acquired following a Cellomics scan using WPMY-1 cells with concentrations of hits over a range of 0-100 uM. […] Results were expressed as percent inhibition caused by cells treated with TGF-β alone and without testing compound, which was considered as 100%. […]
FIGS. 14-15 show Table I—Prestwick Library and Table II—NIH Library chemicals respectively. […] A “hit” was defined as a compound causing at least 50% reduction of “Mean_RingTotal Intensity”, which is the fluorescence intensity within the defined ring (see FIG. 2) surrounding nucleus of each cell, summed for 300 cells per image and 15 fields per image. The solvent, 0.1% Dimethyl Sulfoxide (DMSO), with and without TGF-beta served as an internal control on each plate to normalize day-to-day and plate-to-plate variation with DMSO alone as low fluorescence (0%) and TGF-β treated as maximal fluorescence (100%). […]

[4] = tested on: activated fibroblast phenotype; settings: MRC-5 pre-activated with 10 ng/mL TGF-β 24 hours, then 24 hours treatment
Protocol: (§2) FIGS. 13A-13C: MRC-5 lung fibroblast cells were serum-starved 24 hours then treated with or without 10 ng/mL TGF-β for 24 hours (T-24 hr). […] FN: fibronectin, YAP: yes-activated protein, TAZ: transcriptional coactivator with PDZ-binding motif, and SMA(ACTA2): smooth muscle actin. Representative western blot is shown (n=2). […] Cells were fixed in −20C methanol for 15 minutes and immunolabeled for fibronectin. Cellomics arrayscan imaging was performed and staining intensity was quantified and analyzed for fibronectin expression on a per cell basis.
(§3) Turning now to FIGS. 13A-13E, in a clinical setting, it would be advantageous for the efficacy of the therapeutics that the activated fibroblasts be reversed to a quiescent state upon treatment. […] To test the combinations, the inventors obtained quantitative analysis of fibronectin staining in fibroblasts upon treatment with TGF-β in the presence or absence of drug combinations.

[5] = tested on: TGF-β-induced fibronectin; settings: MRC-5, 10 ng/mL TGF-β, 24 hours, low concentrations alone or in combination
Protocol: as §2, §3

COC(=O)c1ccc2c(c1)NC(=O)/C2=C(\Nc1ccc(N(C)C(=O)CN2CCN(C)CC2)cc1)c1ccccc1 [nintedanib]
FGF signaling (TAZ upregulation) ([1]; MRC-5, 10 ng/mL FGF, nintedanib 200 nM, 24 hours): blocks FGF signaling | induction of activated fibroblast markers by TGF-β ([1]; MRC-5, 10 ng/mL TGF-β, nintedanib 200 nM, 24 hours): does not bock induction by TGF-β

CC(=O)O[C@H]1C[C@H](O[C@H]2[C@@H](O)C[C@H](O[C@H]3[C@@H](O)C[C@H](O[C@H]4CC[C@@]5(C)[C@H](CC[C@@H]6[C@@H]5C[C@@H](O)[C@]5(C)[C@@H](C7=CC(=O)OC7)CC[C@]65O)C4)O[C@@H]3C)O[C@@H]2C)O[C@H](C)[C@H]1O[C@@H]1O[C@H](CO)[C@@H](O)[C@H](O)[C@H]1O [lanatoside C]
cell viability / metabolic activity (WPMY-1 cells): no effect on cell viability

C[C@@H]1O[C@@H](O[C@@H]2C=C3CC[C@@H]4[C@H](CC[C@]5(C)[C@@H](c6ccc(=O)oc6)CC[C@]45O)[C@@]3(C)CC2)[C@H](O)[C@H](O)[C@H]1O [Proscillaridin A]
inhibition of fibronectin induction, western blot ([2]; WPMY-1, TGF-β, dose range of PsA): inhibits induction of fibronectin even a low nanomolar concentrations | cell viability / metabolic activity (WPMY-1 cells): toxic to cells | cell viability / metabolic activity (WPMY-1 cells; listed as proscillaridin A): decreased metabolic activity | IC50 / potency for inhibition of TGF-β-induced fibronectin (dose response) ([3]; WPMY-1, 0-100 uM, TGF-β 24 hour): lowest IC50 | inhibition of fibronectin induction, Cellomics based image analysis ([3]; WPMY-1, TGF-β plus PsA at 5 micromolar): potent inhibitor of fibronectin induction

CC(=O)OCOC(=O)CN(CC(=O)OCOC(C)=O)c1ccccc1OCCOc1ccccc1N(CC(=O)OCOC(C)=O)CC(=O)OCOC(C)=O [BAPTA-AM, Glycine, N,N′-[1,2-ethanediylbis(oxy-2,1-phenylene)]bis[N-[2-[(acetyloxy)methoxy]-2-oxoethyl]]-, bis[(acetyloxy)methyl] ester]
TGF-β-induced fibronectin expression, intracellular Ca2+ modulators (western blot) [2]: no effect on TGF-β-induced fibronectin expression

Cc1cc(/C=C/c2ccc3cc(N(C)C)ccc3[n+]2C)c(C)n1-c1ccccc1 [pyrvinium]
activated fibroblast phenotype induced by TGF-β and FGF (fibronectin, YAP, TAZ, smooth muscle actin) ([1]; MRC-5, 10 ng/mL TGF-β and 20 ng/ml FGF, 24 hours): able to prevent the activated fibroblast phenotype | activated fibroblast phenotype upon TGF-β and FGF, compared with nintedanib ([1]; MRC-5, 10 ng/mL TGF-β and 20 ng/ml FGF, 24 hours, nintedanib 200 nM): able to block the activated fibroblast phenotype better than nintedanib | fibroblast activation from a combination of growth factors (TGF, FGF, IL8) ([1]; MRC-5, 10 ng/mL TGF-β, 20 ng/mL FGF, 20 ng/mL IL-8, digoxin 250 nM, pyrvinium 500 nM vs pirfenidone 500 μm, nintedanib 250 nM): able to block fibroblast activation from a combination of growth factors better than pirfenidone or nintedanib | reversal of activated fibroblast phenotype (fibronectin, TAZ, smooth muscle actin) [4]: revert fibroblasts to the quiescent state | fibronectin staining intensity per cell (Cellomics arrayscan) [5]: the levels of fibronectin are reduced

C[C@@H]1O[C@@H](O[C@H]2C[C@@H](O)[C@]3(CO)[C@H]4[C@H](O)C[C@]5(C)[C@@H](C6=CC(=O)OC6)CC[C@]5(O)[C@@H]4CC[C@]3(O)C2)[C@H](O)[C@H](O)[C@H]1O [ouabain]
cell viability / metabolic activity (WPMY-1 cells): no effect on cell viability

verteporfin
TAZ levels ([1]; MRC-5, 10 ng/mL TGF-β, 24 hours): not reduced | induction of fibronectin, YAP, TAZ, smooth muscle actin by TGF-β ([1]; MRC-5, 10 ng/mL TGF-β, serum-free, 24 hours, dose escalation): represses TGF-β induced fibronectin and smooth muscle actin expression

Cl.NC(=NCc1ccc(Cl)c(Cl)c1)NC(=O)c1nc(Cl)c(N)nc1N [DCB, 3′,4′-dichlorobenzamil hydrochloride]
TGF-β-induced fibronectin expression, intracellular Ca2+ modulators (western blot) [2]: able to prevent TGF-β-induced fibronectin expression in a dose-dependent manner

C/C=C(/C)C(=O)O[C@H]1C(C)=C2[C@H]([C@@H]1OC(=O)CCCCCCC)[C@@](C)(OC(C)=O)C[C@H](OC(=O)CCC)[C@@]1(O)[C@H]2OC(=O)[C@@]1(C)O [thapsigargin]
TGF-β-induced fibronectin expression, intracellular Ca2+ modulators (western blot) [2]: able to prevent TGF-β-induced fibronectin expression in a dose-dependent manner
